According to patent US11000033B2, “Ketone or oxime compound, and herbicide” (NISSAN CHEMICAL CORPORATION, priority 2014, dated 2021):

Assays:
Format in all cases: in vivo
[1] = tested on: Echinochloa oryzacola Vasing.; experiment: Test Example 1: herbicidal activity, application before weed generation in submerged conditions (symbol A); conditions: application herbicide amount 320 g/ha
Summary of the method: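 Flooded alluvial soil (4 cm water) was mixed-sown with the three weed species, and 2.5-leaf rice seedlings were transplanted. On sowing day, a water-diluted emulsion at a predetermined rate was applied to the water surface. After 3 weeks in a 25–30 °C greenhouse, effect was scored 0–5.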

[2] = tested on: Echinochloa oryzacola Vasing.; experiment: Test Example 2: herbicidal activity, application during weed generation in submerged conditions (symbol A); conditions: Table 23; application herbicide amount 320 g/ha; grade 0-5 by criteria of Test Example 1
Summary of the method: (§1)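 Treatment timing was the one- to two-leaf stage, with diluted emulsifiable compound dropped onto the paddy water (depth 4 cm) over alluvial soil. All three species grew from a mixed sowing in a 25° C. to 30° C. greenhouse. Injury was judged by eye 3 weeks on.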

[3] = tested on: Monochoria vaginalis; experiment: Test Example 2: herbicidal activity, application during weed generation in submerged conditions (symbol C); conditions: Table 23; application herbicide amount 320 g/ha; grade 0-5 by criteria of Test Example 1
Summary of the method: as §1

[4] = tested on: Cyperus difformis; experiment: Test Example 3: herbicidal effect by foliage application, Wagner pot (symbol E); conditions: application herbicide amount 320 g/ha
Summary of the method: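 The compound, formulated as an emulsion and diluted with water to a predetermined rate, is applied uniformly to leaves of two-week-old seedlings growing in submerged alluvial soil at 25–30 °C. Rice is included. Each plant is assessed 3 weeks later using defined criteria.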

[5] = tested on: directly sowed rice plant; experiment: Test Example 3: effect on crop by foliage application, Wagner pot (symbol b); conditions: application herbicide amount 320 g/ha
Summary of the method: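 Steps: fill a 1/10000-are Wagner pot with alluvial soil; add water and mix to submerge at 0.1–0.5 cm depth; sow rice plus Echinochloa crus-galli var. crus-galli, Leptochloa chinensis and Cyperus difformis; grow in a 25–30 °C greenhouse.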

[6] = tested on: Echinochloa crus-galli var. crus-galli; experiment: Test Example 4: herbicidal effect by soil treatment (symbol H)
Summary of the method: (§2)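 Seeds were sown in sterilized diluvial soil, covered with about 1.5 cm of soil, and the soil surface was sprayed with a water-diluted emulsion of the compound at a predetermined rate. Plants grew in a greenhouse at 25° C. to 30° C.; effects were scored visually 3 weeks after application.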

[7] = tested on: Abutilon theophrasti; experiment: Test Example 4: herbicidal effect by soil treatment (symbol M)
Summary of the method: as §2

[8] = tested on: Stellaria media; experiment: Test Example 4: herbicidal effect by soil treatment (symbol P)
Summary of the method: as §2

[9] = tested on: Digitaria ciliaris; experiment: Test Example 5: herbicidal effect by foliage application, plastic box (symbol F); conditions: 320 g/ha, 3 weeks after application
Summary of the method: (§3)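 Sowing in sterilized diluvial soil, 14 days' greenhouse growth at 25° C. to 30° C., then uniform small-sprayer foliar application of aqueous emulsion dilution; plants scored three weeks afterwards.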

[10] = tested on: Avena fatua; experiment: Test Example 5: herbicidal effect by foliage application, plastic box (symbol I); conditions: 320 g/ha, 3 weeks after application
Summary of the method: as §3

[11] = tested on: Apera spica-venti; experiment: Test Example 5: herbicidal effect by foliage application, plastic box (symbol L); conditions: 320 g/ha, 3 weeks after application
Summary of the method: as §3

[12] = tested on: rice plant; experiment: Test Example 5: effect on crop by foliage application, plastic box (symbol b); conditions: 320 g/ha, 3 weeks after application
Summary of the method: (§4)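 Plants were raised from seed in a greenhouse (25° C. to 30° C.) after sowing in a plastic box of sterilized diluvial soil.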

[13] = tested on: rapeseed; experiment: Test Example 5: effect on crop by foliage application, plastic box (symbol g); conditions: 320 g/ha, 3 weeks after application
Summary of the method: as §4

[14] = tested on: Stellaria media; experiment: Test Example 5: herbicidal effect by foliage application, plastic box (symbol P); conditions: 320 g/ha, 3 weeks after application
Summary of the method: as §3

[15] = application herbicide amount 320 g/ha

| Structure (SMILES) | Herbicidal effect grade, A: Echinochloa oryzacola Vasing. [1] | Herbicidal effect grade, A: Echinochloa oryzacola Vasing. [2] | Herbicidal effect grade, C: Monochoria vaginalis [3] | herbicidal effect on E, grade 0-5 [4] | effect on crop b (directly sowed rice plant), grade 0-5 [5] | H: Echinochloa crus-galli var. crus-galli, herbicidal effect grade [6, 15] | M: Abutilon theophrasti, herbicidal effect grade [7, 15] | P: Stellaria media, herbicidal effect grade [8, 15] | F: Digitaria ciliaris, herbicidal effect grade [9] | I: Avena fatua, herbicidal effect grade [10] | L: Apera spica-venti, herbicidal effect grade [11] | b: directly sowed rice plant, effect on crop grade [12] | g: rapeseed, effect on crop grade [13] | H: Echinochloa crus-galli var. crus-galli, herbicidal effect grade ([6]; 320 g/ha) | M: Abutilon theophrasti, herbicidal effect grade ([7]; 320 g/ha) | P: Stellaria media, herbicidal effect grade ([8]; 320 g/ha) | F: Digitaria ciliaris, herbicidal effect (criteria 0-5) [9] | I: Avena fatua, herbicidal effect (criteria 0-5) [10] | L: Apera spica-venti, herbicidal effect (criteria 0-5) [11] | P: Stellaria media, herbicidal effect (criteria 0-5) [14] | other results |
| --- | --- | --- | --- | --- | --- | --- | --- | --- | --- | --- | --- | --- | --- | --- | --- | --- | --- | --- | --- | --- | --- |
| CCc1cc(Br)cc(C)c1C1=C(O)CC(C(C(=O)OC)C(C)=NOC)C1=O (centres unmarked) [6-002] | 3 (Herbicidal ratio of 40% or higher and lower than 70%) | 0 (Herbicidal ratio of 5% or lower (almost no effect)) | 0 (Herbicidal ratio of 5% or lower (almost no effect)) | 0 (Herbicidal ratio of 5% or lower (almost no effect)) | 5 (Herbicidal ratio of 90% or more (almost completely withered)) | 2 (Herbicidal ratio of 20% or higher and lower than 40%) | 0 (Herbicidal ratio of 5% or lower (almost no effect)) | 0 (Herbicidal ratio of 5% or lower (almost no effect)) | 5 (Herbicidal ratio of 90% or more (almost completely withered)) | 5 (Herbicidal ratio of 90% or more (almost completely withered)) | 5 (Herbicidal ratio of 90% or more (almost completely withered)) | 5 (Herbicidal ratio of 90% or more (almost completely withered)) | 0 (Herbicidal ratio of 5% or lower (almost no effect)) | – | – | – | – | – | – | – | – |
| CCc1cc(C)cc(C)c1C1=C(O)CC(CC(C)=NOC)C1=O (centres unmarked) [6-007] | 5 (Herbicidal ratio of 90% or more (almost completely withered)) | 5 (Herbicidal ratio of 90% or more (almost completely withered)) | 2 (Herbicidal ratio of 20% or higher and lower than 40%) | 5 (Herbicidal ratio of 90% or more (almost completely withered)) | 5 (Herbicidal ratio of 90% or more (almost completely withered)) | 5 (Herbicidal ratio of 90% or more (almost completely withered)) | 4 (Herbicidal ratio of 70% or higher and lower than 90%) | 0 (Herbicidal ratio of 5% or lower (almost no effect)) | 5 (Herbicidal ratio of 90% or more (almost completely withered)) | 3 (Herbicidal ratio of 40% or higher and lower than 70%) | 4 (Herbicidal ratio of 70% or higher and lower than 90%) | 5 (Herbicidal ratio of 90% or more (almost completely withered)) | – | – | – | – | – | – | – | – | – |
| CC#Cc1cc(C)c(C2=C(O)CC(CC(C)=NOC)C2=O)c(C)c1 (mixture of isomers) [6-009] | 5 (Herbicidal ratio of 90% or more (almost completely withered)) | 3 (Herbicidal ratio of 40% or higher and lower than 70%) | 0 (Herbicidal ratio of 5% or lower (almost no effect)) | 0 (Herbicidal ratio of 5% or lower (almost no effect)) | 5 (Herbicidal ratio of 90% or more (almost completely withered)) | 5 (Herbicidal ratio of 90% or more (almost completely withered)) | 5 (Herbicidal ratio of 90% or more (almost completely withered)) | 4 (Herbicidal ratio of 70% or higher and lower than 90%) | 5 (Herbicidal ratio of 90% or more (almost completely withered)) | 4 (Herbicidal ratio of 70% or higher and lower than 90%) | 5 (Herbicidal ratio of 90% or more (almost completely withered)) | 5 (Herbicidal ratio of 90% or more (almost completely withered)) | 4 (Herbicidal ratio of 70% or higher and lower than 90%) | – | – | – | – | – | – | – | – |
| CCc1cc(-n2cc(Cl)cn2)cc(C)c1C1=C(O)CC(CC(C)=NOC)C1=O (mixture of isomers) [6-005] | 5 (Herbicidal ratio of 90% or more (almost completely withered)) | 5 (Herbicidal ratio of 90% or more (almost completely withered)) | 3 (Herbicidal ratio of 40% or higher and lower than 70%) | 3 (Herbicidal ratio of 40% or higher and lower than 70%) | 5 (Herbicidal ratio of 90% or more (almost completely withered)) | 5 (Herbicidal ratio of 90% or more (almost completely withered)) | 0 (Herbicidal ratio of 5% or lower (almost no effect)) | 0 (Herbicidal ratio of 5% or lower (almost no effect)) | 5 (Herbicidal ratio of 90% or more (almost completely withered)) | 5 (Herbicidal ratio of 90% or more (almost completely withered)) | 5 (Herbicidal ratio of 90% or more (almost completely withered)) | 5 (Herbicidal ratio of 90% or more (almost completely withered)) | 0 (Herbicidal ratio of 5% or lower (almost no effect)) | – | – | – | – | – | – | – | – |
| CON=C(C)CC1CC(OC(=O)OCc2ccccc2)=C(c2c(C)cc(C)cc2C)C1=O (centres unmarked) [1-145] | 5 (Herbicidal ratio of 90% or more (almost completely withered)) | 5 (Herbicidal ratio of 90% or more (almost completely withered)) | 3 (Herbicidal ratio of 40% or higher and lower than 70%) | – | 5 (Herbicidal ratio of 90% or more (almost completely withered)) | – | – | – | – | – | – | – | – | 5 (Herbicidal ratio of 90% or more (almost completely withered)) | 4 (Herbicidal ratio of 70% or higher and lower than 90%) | 3 (Herbicidal ratio of 40% or higher and lower than 70%) | 5 (Herbicidal ratio of 90% or more (almost completely withered)) | 5 (Herbicidal ratio of 90% or more (almost completely withered)) | 5 (Herbicidal ratio of 90% or more (almost completely withered)) | 2 (Herbicidal ratio of 20% or higher and lower than 40%) | b: directly sowed rice plant, effect on crop (criteria 0-5) [12]: 5 (Herbicidal ratio of 90% or more (almost completely withered)); g: rapeseed, effect on crop (criteria 0-5) [13]: 4 (Herbicidal ratio of 70% or higher and lower than 90%) |
| CON=C(C)CC1CC(OS(=O)(=O)C2CC2)=C(c2c(C)cc(C)cc2C)C1=O (centres unmarked) [1-143] | 4 (Herbicidal ratio of 70% or higher and lower than 90%) | 4 (Herbicidal ratio of 70% or higher and lower than 90%) | 3 (Herbicidal ratio of 40% or higher and lower than 70%) | – | 5 (Herbicidal ratio of 90% or more (almost completely withered)) | – | – | – | – | – | – | – | – | 0 (Herbicidal ratio of 5% or lower (almost no effect)) | 0 (Herbicidal ratio of 5% or lower (almost no effect)) | 0 (Herbicidal ratio of 5% or lower (almost no effect)) | 5 (Herbicidal ratio of 90% or more (almost completely withered)) | 5 (Herbicidal ratio of 90% or more (almost completely withered)) | 5 (Herbicidal ratio of 90% or more (almost completely withered)) | 0 (Herbicidal ratio of 5% or lower (almost no effect)) | b: directly sowed rice plant, effect on crop (criteria 0-5) [12]: 2 (Herbicidal ratio of 20% or higher and lower than 40%); g: rapeseed, effect on crop (criteria 0-5) [13]: 4 (Herbicidal ratio of 70% or higher and lower than 90%) |
